We go through 6 molecules from patent US11066650B2, “Methods for the in vitro manufacture of gastric fundus tissue and compositions related to same” (Children's Hospital Medical Center, priority 2016, dated 2021).

The test system of experiment [1] is posterior foregut spheroids. The experiment in a line: Gastric specification of posterior foregut spheroids into fundic hGOs (qPCR/staining). In kind it is cell-based, human. How it is done: Posterior foregut spheroids were collected and transferred to a three-dimensional culture system as previously described^36. Briefly, spheroids were suspended in 50 μl Matrigel (BD Biosciences) and plated as a droplet into 24-well plates. The matrigel was allowed to solidify for 10 minutes in the tissue culture incubator, then overlayed with basic gut media (BGM) containing growth factors and/or small molecule agonsists. BGM consisted of Advanced DMEM/F12 media (Gibco) supplemented with N2 (1×; Invitrogen), B27 (1×; Invitrogen), HEPES ([…]; Gibco), L-glutamine, penicillin/streptomycin, and EGF (100 ng/ml; R&D Systems). During days 6-9, spheroids were cultured with RA and noggin to specify the antral lineage. For fundic specification, CHIR was added during this stage. Antral hGOs were subsequently cultured in BGM with only EGF. Fundic hGOs were continuously exposed to CHIR from day 6-30. […] On day 20, organoids were collected and re-plated at a dilution of 1:10-1:20.
(§1) Total RNA was isolated using Nucleospin RNA II kit (Machery Nagel) and converted to cDNA as previously described7. qPCR was performed on Quantstudio 6 (Applied Biosystems) using Quantitect SYBR-Green master mix (Qiagen), and primer sequences are listed below.

In experiment [2] the test system is hFGOs. Briefly: Acid secretion assay, luminal pH by SNARF-5F in fundic hGOs. In kind it is cell-based, human. How it is done: Acid secretion assays were performed as previously described (Schumacher et al., 2015). hGOs were grown in the chambered coverglass (Thermo Scientific) and the chamber was placed on an inverted confocal microscope (Zeiss LSM 710), and experiments were performed under 5% CO2 and 37° C. conditions (incubation chamber, PeCon, Erbach, Germany).
(§2) Freshly isolated mouse gastric fundic glands or cultured hGO were incubated with acridine orange (10 μM), then acridine orange fluorescence was excited at 458 nm or 488 nm and images were collected at 600-650 nm (Red) or 500-550 nm (Green), respectively. On the other hand, to monitor hGOs luminal pH, the ratiometric pH sensitive dye, 5-(and-6)-carboxy SNARF-5F (5 mM stock: EX 560 nm, EM 565-605 (Green) and 620-680 (Red) nm: Invitrogen) was microinjected (46-92 nl) into the lumen and monitored. Fluorescent dye also added into medium. Histamine (100 μM; Sigma) was added to media, while famotidine (100 μM; Sigma) or omeprazole (100 μM; Sigma) were pre-incubated at least 30 min before histamine. Images were analyzed using MetaMorph software (Molecular Devices, Downingtown, Pa.). Background corrected 620-680/565-605 nm ratio values were converted to pH using a standard curve.

Another experiment relates to hAGOs. As to conditions: histamine 100 μM. On the procedure: as §2, with “Acid secretion assays were performed as previously described (Schumacher et al., 2015). hGOs were grown in the chambered coverglass (Thermo Scientific) and the chamber was placed on an inverted confocal microscope (Zeiss LSM 710), and experiments were performed under 5% CO2 and 37° C. conditions (incubation chamber, PeCon, Erbach, Germany). Freshly” for “Freshly”, “Histamine (100 μM;” left out

In experiment [3] the test system is hFGOs. As to conditions: histamine, hFGO glands. On the procedure:
as §2, with “Acid secretion assays were performed as previously described (Schumacher et al., 2015). hGOs were grown in the chambered coverglass (Thermo Scientific) and the chamber was placed on an inverted confocal microscope (Zeiss LSM 710), and experiments were performed under 5% CO2 and 37° C. conditions (incubation chamber, PeCon, Erbach, Germany). Freshly” for “Freshly”, “Histamine (100 μM;” left out

Experiment [4] relates to isolated mouse gastric glands. As to conditions: histamine, after 60 minutes. How it is done: as §2, with “Acid secretion assays were performed as previously described (Schumacher et al., 2015). hGOs were grown in the chambered coverglass (Thermo Scientific) and the chamber was placed on an inverted confocal microscope (Zeiss LSM 710), and experiments were performed under 5% CO2 and 37° C. conditions (incubation chamber, PeCon, Erbach, Germany). Freshly” for “Freshly”, “Histamine (100 μM;” left out

The test system of experiment [5] is hFGOs. Briefly: Screen for factors that increase parietal cell differentiation in hFGOs (qPCR at day 34). The class given is cell-based, human. As to conditions: for parietal cell gene expression (ATP4A and ATP4B): day 30 hFGOs exposed two days, analysed at day 34. On the procedure: For screening experiments to identify factors that increase parietal cell differentiation, hFGOs were grown to day 30, then exposed for two days to individual signaling pathway agonists and antagonists: DAPT (1 μM; Stemgent), SB431542 (10 μM; Stemgent), BMP4 (50 ng/ml; R&D Systems), PD0325901 (2 μM; Stemgent), Gastrin (10 nM; Sigma Aldrich), Dexamethasone (50 nM; Sigma Aldrich), and Wnt5a (50 ng/ml; R&D Systems). Following treatment, hFGOs were grown for two more days to day 34, then analyzed by qPCR.
as §1
For orientation: Real-time PCR tracks product formation cycle by cycle.

Setting [6] is: CHIR for three days (days 6-9), analysed at day 9.

For `Cc1c[nH]c(-c2cnc(NCCNc3ccc(C#N)cn3)nc2-c2ccc(Cl)cc2Cl)n1` [CHIR99021], in experiment [1] (setting [6]), the PDX1 expression result is listed as “nearly complete repression”; the “SOX2 and GATA4 levels” value is “unaffected”; the “expression of IRX2, IRX3, and IRX5” value is “significantly increased expression”. Further, the “intestinal markers CDX2, MUC2, CCK, or SCT” value in experiment [1] (CHIR-treated hGOs) is listed as “did not exhibit a significant increase”. Moreover, the fundic gene expression result in experiment [1] (continued CHIR treatment through at least day 29) is “stable induction of fundic gene expression”. Moreover, in experiment [1] (three-day pulse of CHIR from days 6-9, later stages), the “specification of fundic identity” value is “not sufficient to irreversibly specify a fundic identity”.
As to `NC(N)=Nc1nc(CSCCC(N)=NS(N)(=O)=O)cs1` [famotidine], in the experiment with hFGOs [2] (100 μM, pre-incubated at least 30 min before histamine 100 μM), the “histamine-induced decrease in luminal pH (acidification)” value is recorded as “blocked”.
Turning to `NCCc1c[nH]cn1` [histamine], the “luminal pH response” value is “swift and marked decrease in luminal pH” in the experiment on hFGOs [2] (histamine 100 μM); “no response” in the experiment with hAGOs. Moreover, the “acridine orange (AO) accumulation” value is “AO accumulated in acidified cellular vesicles” in the experiment with hFGOs [3] and “induced acridine orange (AO) dye accumulation in a canalicular-type pattern” in experiment [4].
As for `O=C(NOC[C@H](O)CO)c1ccc(F)c(F)c1Nc1ccc(I)cc1F` [PD0325901], the “parietal cell gene expression (ATP4A and ATP4B)” value in the experiment on hFGOs [5] was “substantial up-regulation”.

B1: BMP4: growth factor, BMP signalling activator (R&D Systems) (protein, UniProt P12644 293-408, looked up)
Bone morphogenetic protein 4: SPKHHSQRARKKNKNCRRHSLYVDFSDVGWNDWIVAPPGYQAFYCHGDCPFPLADHLNSTNHAIVQTLVNSVNSSIPKACCVPTELSAISMLYLDEYDKVVLKNYQEMVVEGCGCR
With B1, the CDX2 expression entry in experiment [1] (Noggin replaced with BMP4, with Wnt/β-catenin activation (CHIR)) was “robust expression of the intestinal transcription factor”. In addition, the “effect of PD03 on parietal cell gene expression” value with hFGOs [5] (BMP4 added to PD03, data not shown) is recorded as “could enhance the effect of PD03”. Moreover, the “parietal cell gene expression (ATP4A and ATP4B)” value with hFGOs [5] was “did not affect PC gene expression”.

B2: FGF10: growth factor (R&D Systems) added to fundic hGOs day 20-30 (protein, UniProt O15520 38-208, looked up)
Fibroblast growth factor 10: QALGQDMVSPEATNSSSSSFSSPSSAGRHVRSYNHLQGDVRWRKLFSFTKYFLKIEKNGKVSGTKKENCPYSILEITSVEIGVVAVKAINSNYYLAMNKKGKLYGSKEFNNDCKLKERIEENGYNTYASFNWQHNGRQMYVALNGKGAPRRGQKTRRKNTSAHFLPMVVHS
On to B2, for which the “glandular morphogenesis driven by CHIR” value in experiment [1] (FGF10 50 ng/ml, day 20-30, data not shown) is on record as “enhance the glandular morphogenesis”.
